Experimental data published in patent US20220096454A1, “CARBOXYLIC ACID DERIVATIVES” (Merck Patent GmbH, priority 2018, published 2022).

Experiments:
Tankyrases = details: read-out: EC50 [M] TNKS cellular assay; increase of Axin2 level in colon carcinoma cell line DLD1, 24 hours
Protocol: Measurement of Cellular Inhibition of Tankyrase
Cells of the colon carcinoma cell line DLD1 are plated in 96 well plates with 1.5×10^4 cells per well. Next day, cells are treated with a serial dilution of test compound in seven steps as triplicates with a final DMSO concentration of 0.3%. […] The amount of isolated Axin2 protein is determined in a Luminex^200 machine (Luminex Corporation) according to the manufacturer's instruction by counting 100 events per well. […] As controls cells are treated with solvent alone (neutral control) and with a Tankyrase reference inhibitor IWR-2 (3E−06 M) which refers as control for maximum increase of Axin2. For analysis, the obtained data are normalized against the untreated solvent control and fitted for determination of the EC50 values using the Assay Explorer software (Accelrys).

TNKS1 = molecular target: T1, TNKS1 (Homo sapiens, UniProt O95271); assay: TNKS1 activity ELISA (autoparsylation assay); format: biochemical; details: GST-tagged Tnks-1 (1023-1327 aa), 10 μM bio-NAD, 1 hour at 30° C.
T1 construct: GST-tagged Tnks-1 (1023-1327 aa, prepared in-house); made in house
Protocol: (§1) Description of the TNKS1 and TNKS2 ELISA Assay
(§2) Biochemical activity testing of TNKS 1 and 2: activity ELISA (Autoparsylation assay)
(§3) For analysis of autoparsylation activity of TNKS 1 and 2 an activity ELISA is performed: In the first step GST tagged TNKS is captured on a Glutathione coated plate. Then the activity assay with biotinylated NAD is performed in the absence/presence of the compounds. During the enzymatic reaction GST tagged TNKS transfers biotinylated ADP-ribose to itself from biotinylated NAD as co-substrate. For the detection streptavidin-HRP conjugate is added that binds to the biotinylated TNKS and is thereby captured to the plates. The amount of biotinylated resp. autoparsylated TNKS is detected with a luminescence substrate for HRP. The level of the luminescence signal correlates directly with the amount of autoparsylated TNKS and therefore with activity of TNKS.
(§4) The activity ELISA is performed in 384 well Glutathione coated microtiter plates (Express capture Glutathione coated plate, Biocat, Heidelberg, Germany). The plates are pre-equilibrated with PBS. […] The plates are washed 3 times with PBS-Tween-20. The wells are blocked by incubation at room temperature for 20 minutes with 50 μl blocking buffer (PBS, 0.05% Tween-20, 0.5% BSA). Afterwards the plates are washed 3 times with PBS-Tween-20. […] The reaction is stopped by 3 times washing with PBS-Tween-20. For the detection 50 μl of 20 ng/μl Streptavidin, HRP conjugate (MoBiTec, Göttingen, Germany) in PBS/0.05% Tween-20/0.01% BSA are added and the plates are incubated for 30 minutes at room temperature. After three times washing with PBS-Tween-20 50 μl of SuperSignal ELISA Femto Maximum sensitivity substrate solution (ThermoFisherScientific (Pierce), Bonn, Germany) are added. Following a 1 minute incubation at room temperature luminescence signals are measured with an Envision multimode reader (Perkin Elmer LAS Germany GmbH) at 700 nm. The full value used is the inhibitor-free reaction. […] The inhibitory values (IC50) are determined using either the program Symyx Assay Explorer® or Condosseo® from GeneData.

TNKS2 = molecular target: T2, TNKS2 (Homo sapiens, UniProt Q9H2K2); assay: TNKS2 activity ELISA (autoparsylation assay); format: biochemical; details: GST-tagged Tnks-2 (873-1166 aa), 10 μM bio-NAD, 1 hour at 30° C.
T2 construct: GST-tagged Tnks-2 (873-1166 aa, prepared in-house); made in house
Protocol: as §1, §2, §3, §4

T1 sequence (O95271 1023-1327): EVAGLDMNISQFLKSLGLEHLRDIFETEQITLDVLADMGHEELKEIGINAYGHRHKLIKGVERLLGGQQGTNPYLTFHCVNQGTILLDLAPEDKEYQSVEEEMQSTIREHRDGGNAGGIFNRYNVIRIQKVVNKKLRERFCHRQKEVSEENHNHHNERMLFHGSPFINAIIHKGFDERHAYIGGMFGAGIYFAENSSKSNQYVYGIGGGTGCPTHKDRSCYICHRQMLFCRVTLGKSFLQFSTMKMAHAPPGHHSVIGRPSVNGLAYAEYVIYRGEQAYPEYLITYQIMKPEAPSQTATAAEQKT
T2 sequence (Q9H2K2 873-1166): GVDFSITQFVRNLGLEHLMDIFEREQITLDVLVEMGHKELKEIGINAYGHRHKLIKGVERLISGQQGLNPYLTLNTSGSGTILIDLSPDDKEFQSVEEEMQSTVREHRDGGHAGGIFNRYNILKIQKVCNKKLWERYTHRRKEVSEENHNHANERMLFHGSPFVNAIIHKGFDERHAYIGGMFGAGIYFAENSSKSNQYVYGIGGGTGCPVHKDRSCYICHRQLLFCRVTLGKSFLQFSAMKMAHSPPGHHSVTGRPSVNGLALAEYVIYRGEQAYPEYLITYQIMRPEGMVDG

CN(C(=O)N1CCC(C(=O)c2ccc3nnn(C)c3c2)CC1)c1ccc(C(=O)O)cc1 [Compound C34, 4-{Methyl-[4-(3-methyl-3H-benzotriazole-5-carbonyl)-piperidine-1-carbonyl]-amino}-benzoic Acid]
EC50 (Tankyrases): 3.2e-06 M | IC50 (TNKS1): 2.6 nM | IC50 (TNKS2): 1.1 nM

COc1ccc(N(C)C(=O)N2CCC(C(=O)c3ccc4cc(C(=O)O)n(C)c4c3)CC2)cc1 [Compound C3, 6-{1-[(4-Methoxy-phenyl)-methyl-carbamoyl]-piperidine-4-carbonyl}-1-methyl-1H-indole-2-carboxylic Acid]
EC50 (Tankyrases): 1.3e-07 M | IC50 (TNKS1): 1.8 nM | IC50 (TNKS2): 2.7 nM

CN(C(=O)N1CCC(C(=O)c2ccc3cc(C(=O)O)n(C)c3c2)CC1)c1ccc(F)cc1 [Compound C1, 6-{1-[(4-Fluoro-phenyl)-methyl-carbamoyl]-piperidine-4-carbonyl}-1-methyl-1H-indole-2-carboxylic Acid]
EC50 (Tankyrases): 2.1e-07 M | IC50 (TNKS1): 3.5 nM | IC50 (TNKS2): 1.1 nM

COc1ccc(N(C)C(=O)N2CCC(C(=O)c3ccc4c(C(=O)O)nn(C)c4c3)CC2)cc1 [Compound C11, 6-{1-[(4-Methoxy-phenyl)-methyl-carbamoyl]-piperidine-4-carbonyl}-1-methyl-1H-indazole-3-carboxylic Acid]
EC50 (Tankyrases): 3.9e-06 M | IC50 (TNKS1): 1.4 nM | IC50 (TNKS2): 0.74 nM

CCN(C(=O)N1CCC(C(=O)c2ccc3c(c2)ncn3C)CC1)c1ccc(C(=O)O)cc1 [Compound C31, 4-{Ethyl-[4-(1-methyl-1H-benzimidazole-5-carbonyl)-piperidine-1-carbonyl]-amino}-benzoic Acid]
EC50 (Tankyrases): 3.69e-07 M | IC50 (TNKS1): 3.5 nM | IC50 (TNKS2): 2.6 nM

CCN(C(=O)N1CCC(C(=O)c2ccc3c(c2)ncn3C)CC1)c1cccc(C(=O)O)c1 [Compound C33, 3-{Ethyl-[4-(1-methyl-1H-benzimidazole-5-carbonyl)-piperidine-1-carbonyl]-amino}-benzoic Acid]
EC50 (Tankyrases): 3.6e-06 M | IC50 (TNKS1): 3.3 nM | IC50 (TNKS2): 1.5 nM

CN(C(=O)N1CCC(C(=O)c2ccc3c(cnn3C)c2)CC1)c1ccc(C(=O)O)cc1 [Compound C22, 4-{Methyl-[4-(1-methyl-1H-indazole-5-carbonyl)-piperidine-1-carbonyl]-amino}-benzoic Acid]
EC50 (Tankyrases): 3.46e-07 M | IC50 (TNKS1): 7.6 nM | IC50 (TNKS2): 3.9 nM

COc1ccc(N(C)C(=O)N2CCC(C(=O)c3ccc4c(c3)cc(C(=O)O)n4C)CC2)cc1 [Compound C7, 5-{1-[(4-Methoxy-phenyl)-methyl-carbamoyl]-piperidine-4-carbonyl}-1-methyl-1H-indole-2-carboxylic Acid]
EC50 (Tankyrases): 6.31e-08 M | IC50 (TNKS1): 1.3 nM | IC50 (TNKS2): 1.3 nM

CCN(C(=O)N1CCC(C(=O)c2ccc3ncn(C)c3c2)CC1)c1cccc(C(=O)O)c1 [Compound C29, 3-{Ethyl-[4-(3-methyl-3H-benzimidazole-5-carbonyl)-piperidine-1-carbonyl]-amino}-benzoic Acid]
EC50 (Tankyrases): 4.75e-06 M | IC50 (TNKS1): 3.4 nM | IC50 (TNKS2): 3 nM

CCN(C(=O)N1CCC(C(=O)c2ccc3c(cnn3C)c2)CC1)c1cccc(C(=O)O)c1 [Compound C25, 3-{Ethyl-[4-(1-methyl-1H-indazole-5-carbonyl)-piperidine-1-carbonyl]-amino}-benzoic Acid]
EC50 (Tankyrases): 4.87e-08 M | IC50 (TNKS1): 1.8 nM | IC50 (TNKS2): 0.89 nM

CN(C(=O)N1CCC(C(=O)c2ccc3c(c2)ncn3C)CC1)c1ccc(C(=O)O)cc1 [Compound C30, 4-{Methyl-[4-(1-methyl-1H-benzimidazole-5-carbonyl)-piperidine-1-carbonyl]-amino}-benzoic Acid]
EC50 (Tankyrases): 6e-06 M | IC50 (TNKS1): 17 nM | IC50 (TNKS2): 10 nM

COc1ccc(N(C)C(=O)N2CCC(C(=O)c3ccc4c(c3)c(C(=O)O)nn4C)CC2)cc1 [Compound C15, 5-{1-[(4-Methoxy-phenyl)-methyl-carbamoyl]-piperidine-4-carbonyl}-1-methyl-1H-indazole-3-carboxylic Acid]
EC50 (Tankyrases): 7.1e-06 M | IC50 (TNKS1): 43 nM | IC50 (TNKS2): 19 nM

CCN(C(=O)N1CCC(C(=O)c2ccc3c(C(=O)O)nn(C)c3c2)CC1)c1ccc(F)cc1 [Compound C10, 6-{1-[Ethyl-(4-fluoro-phenyl)-carbamoyl]-piperidine-4-carbonyl}-1-methyl-1H-indazole-3-carboxylic Acid]
EC50 (Tankyrases): 4.6e-07 M | IC50 (TNKS1): 0.744 nM | IC50 (TNKS2): 0.432 nM

CCN(C(=O)N1CCC(C(=O)c2ccc3cnn(C)c3c2)CC1)c1cccc(C(=O)O)c1 [Compound C20, 3-{Ethyl-[4-(1-methyl-1H-indazole-6-carbonyl)-piperidine-1-carbonyl]-amino}-benzoic Acid]
EC50 (Tankyrases): 1.93e-07 M | IC50 (TNKS1): 0.58 nM | IC50 (TNKS2): 0.65 nM

CN(C(=O)N1CCC(C(=O)c2ccc3c(c2)cc(C(=O)O)n3C)CC1)c1ccc(F)cc1 [Compound C5, 5-{1-[(4-Fluoro-phenyl)-methyl-carbamoyl]-piperidine-4-carbonyl}-1-methyl-1H-indole-2-carboxylic acid]
EC50 (Tankyrases): 7.4e-08 M | IC50 (TNKS1): 1 nM | IC50 (TNKS2): 1.4 nM

CCN(C(=O)N1CCC(C(=O)c2ccc3cc(C(=O)O)n(C)c3c2)CC1)c1ccc(F)cc1 [Compound C2, 6-{1-[Ethyl-(4-fluoro-phenyl)-carbamoyl]-piperidine-4-carbonyl}-1-methyl-1H-indole-2-carboxylic Acid]
EC50 (Tankyrases): 1.9e-08 M | IC50 (TNKS1): 0.67 nM | IC50 (TNKS2): 0.49 nM

CCN(C(=O)N1CCC(C(=O)c2ccc3c(c2)cc(C(=O)O)n3C)CC1)c1ccc(F)cc1 [Compound C6, 5-{1-[Ethyl-(4-fluoro-phenyl)-carbamoyl]-piperidine-4-carbonyl}-1-methyl-1H-indole-2-carboxylic Acid]
EC50 (Tankyrases): 5.9e-09 M | IC50 (TNKS1): 0.41 nM | IC50 (TNKS2): 1.4 nM
